Assay results from PubChem BioAssay (NCI).
“And” between values parts separate entries of the source, which are not always exact repeats. Equal values may be shown once.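 48-hour exposure; five concentrations; linearly interpolated endpoints. GI50 is the concentration that inhibits growth by half. TGI is the concentration that stops growth completely.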

How the values were obtained:
Assay in all cases: NCI anticancer screen, dose series, 48 h
COLO 205 colon = tested on: COLO 205 colon
HT29 colon = tested on: HT29 colon
786-0 renal = tested on: 786-0 renal
SNB-75 CNS = tested on: SNB-75 CNS
SK-MEL-28 melanoma = tested on: SK-MEL-28 melanoma
SR leukemia = tested on: SR leukemia
NCI-H226 lung = tested on: NCI-H226 lung
RXF 393 renal = tested on: RXF 393 renal
A549 NSCLC = tested on: A549 NSCLC
ACHN renal = tested on: ACHN renal

Q: Which results are given for `CN1CCN(C2=NC(=O)/C(=C\c3ccc(N(C)C)cc3)S2)CC1`?
A: GI50 (COLO 205 colon): > 100 µM; TGI (COLO 205 colon): > 100 µM; GI50 (HT29 colon): 39.5 µM; TGI (HT29 colon): > 100 µM; GI50 (786-0 renal): > 100 µM; TGI (786-0 renal): > 100 µM; GI50 (SNB-75 CNS): 48.2 µM; TGI (SNB-75 CNS): > 100 µM; GI50 (SK-MEL-28 melanoma): > 100 µM; TGI (SK-MEL-28 melanoma): > 100 µM; GI50 (SR leukemia): 57.4 µM; TGI (SR leukemia): > 100 µM; GI50 (NCI-H226 lung): > 100 µM; TGI (NCI-H226 lung): > 100 µM; GI50 (RXF 393 renal): 45.4 µM; TGI (RXF 393 renal): > 100 µM; GI50 (A549 NSCLC): > 100 µM; TGI (A549 NSCLC): > 100 µM; GI50 (ACHN renal): > 100 µM; TGI (ACHN renal): > 100 µM

Q: How did the GI50 (COLO 205 colon) turn out when `CN(C)CCC(=O)Nc1ccc(-n2cc(-c3cccc(NC(=S)Nc4cccc(-c5cn(-c6ccc(NC(=O)CCN(C)C)cc6)nn5)c4)c3)nn2)cc1` was run?
A: 14.2 µM

Q: And the TGI (COLO 205 colon)?
A: 45.7 µM

Q: What about the GI50 (HT29 colon) of the same compound?
A: 6.03 µM

Q: And the TGI (HT29 colon)?
A: > 100 µM

Q: What about the GI50 (786-0 renal) of the same compound?
A: > 100 µM

Q: And the TGI (786-0 renal)?
A: > 100 µM

Q: What about the GI50 (SNB-75 CNS) of the same compound?
A: 25.6 µM

Q: And the TGI (SNB-75 CNS)?
A: 65.6 µM

Q: What about the GI50 (SK-MEL-28 melanoma) of the same compound?
A: 24.5 µM

Q: What about the TGI (SK-MEL-28 melanoma) of the same compound?
A: 53.4 µM

Q: And the GI50 (SR leukemia)?
A: 26.2 µM

Q: And the TGI (SR leukemia)?
A: > 100 µM

Q: What about the GI50 (NCI-H226 lung) of the same compound?
A: 35.3 µM

Q: And the TGI (NCI-H226 lung)?
A: > 100 µM

Q: And the GI50 (RXF 393 renal)?
A: > 100 µM

Q: And the TGI (RXF 393 renal)?
A: > 100 µM

Q: What about the GI50 (A549 NSCLC) of the same compound?
A: 27.8 µM

Q: What about the TGI (A549 NSCLC) of the same compound?
A: > 100 µM

Q: What about the GI50 (ACHN renal) of the same compound?
A: > 100 µM

Q: And the TGI (ACHN renal)?
A: > 100 µM

Q: Which TGI (COLO 205 colon) does the source give for `Cn1c(=O)oc2cc(C3CCC(=O)N3Cc3csc(-c4ccccc4)n3)ccc21` (stereo unspecified) here?
A: > 100 µM

Q: And the TGI (HT29 colon)?
A: > 100 µM

Q: What about the TGI (786-0 renal) of the same compound?
A: > 100 µM

Q: What about the TGI (SNB-75 CNS) of the same compound?
A: > 100 µM

Q: What about the TGI (SK-MEL-28 melanoma) of the same compound?
A: > 100 µM

Q: What about the TGI (SR leukemia) of the same compound?
A: > 100 µM

Q: And the TGI (NCI-H226 lung)?
A: > 100 µM

Q: And the TGI (RXF 393 renal)?
A: > 100 µM

Q: What about the TGI (A549 NSCLC) of the same compound?
A: > 100 µM

Q: And the TGI (ACHN renal)?
A: > 100 µM

Q: How did the TGI (COLO 205 colon) turn out when `CCOc1c(Br)cc(Br)cc1C=C(C#N)C#N` was run?
A: > 10 µM

Q: And the TGI (HT29 colon)?
A: > 10 µM

Q: What about the TGI (786-0 renal) of the same compound?
A: > 10 µM

Q: What about the TGI (SNB-75 CNS) of the same compound?
A: > 10 µM

Q: What about the TGI (SK-MEL-28 melanoma) of the same compound?
A: > 10 µM

Q: And the TGI (SR leukemia)?
A: > 10 µM

Q: What about the TGI (NCI-H226 lung) of the same compound?
A: > 10 µM

Q: And the TGI (RXF 393 renal)?
A: > 10 µM

Q: And the TGI (A549 NSCLC)?
A: > 10 µM

Q: What about the TGI (ACHN renal) of the same compound?
A: > 10 µM

Q: What does the source list for `Cc1cc(=O)[nH]c(NNC(C#N)c2cccc([N+](=O)[O-])c2)n1` (stereo unspecified)?
A: TGI (COLO 205 colon): > 100 µM; TGI (HT29 colon): > 100 µM; TGI (786-0 renal): > 100 µM; TGI (SNB-75 CNS): > 100 µM; TGI (SK-MEL-28 melanoma): > 100 µM; TGI (SR leukemia): > 100 µM; TGI (NCI-H226 lung): > 100 µM; TGI (RXF 393 renal): > 100 µM; TGI (A549 NSCLC): > 100 µM; TGI (ACHN renal): > 100 µM

Q: With `CC(=O)[CH-]C(C)=O.CC(=O)[CH-]C(C)=O.[O-]c1ccccc1.[O-]c1ccccc1.[Ti+4]` as the compound, how does the GI50 (COLO 205 colon) read?
A: > 100 µM

Q: And the TGI (COLO 205 colon)?
A: > 100 µM

Q: What about the GI50 (HT29 colon) of the same compound?
A: > 100 µM

Q: And the TGI (HT29 colon)?
A: > 100 µM

Q: What about the GI50 (786-0 renal) of the same compound?
A: > 100 µM

Q: And the TGI (786-0 renal)?
A: > 100 µM

Q: What about the GI50 (SNB-75 CNS) of the same compound?
A: > 100 µM

Q: And the TGI (SNB-75 CNS)?
A: > 100 µM

Q: What about the GI50 (SK-MEL-28 melanoma) of the same compound?
A: > 100 µM

Q: And the TGI (SK-MEL-28 melanoma)?
A: > 100 µM

Q: What about the GI50 (SR leukemia) of the same compound?
A: > 100 µM

Q: What about the TGI (SR leukemia) of the same compound?
A: > 100 µM

Q: What about the GI50 (NCI-H226 lung) of the same compound?
A: > 100 µM

Q: And the TGI (NCI-H226 lung)?
A: > 100 µM

Q: What about the GI50 (A549 NSCLC) of the same compound?
A: > 100 µM

Q: And the TGI (A549 NSCLC)?
A: > 100 µM

Q: And the GI50 (ACHN renal)?
A: > 100 µM

Q: And the TGI (ACHN renal)?
A: > 100 µM

Q: For `OCC(O)C(O)C(O)C(/C=N\Nc1ncnc2c(Br)cc(Br)cc12)=N/Nc1ncnc2c(Br)cc(Br)cc12` (stereo unspecified), which TGI (COLO 205 colon) is on record?
A: 13 µM and 22 µM

Q: And the TGI (HT29 colon)?
A: 42 µM and > 100 µM

Q: What about the GI50 (786-0 renal) of the same compound?
A: 2.73 µM and 5.76 µM

Q: And the TGI (SR leukemia)?
A: 17.3 µM and > 100 µM

Q: And the TGI (NCI-H226 lung)?
A: 9.42 µM

Q: And the GI50 (A549 NSCLC)?
A: 5.04 µM and 15.4 µM

Q: And the TGI (A549 NSCLC)?
A: 21.6 µM and > 100 µM

Q: And the TGI (ACHN renal)?
A: 33 µM and > 100 µM

Q: What does the source list for `Cc1cccc(N2C(=O)/C(=C/C(Cl)=C/c3ccc([N+](=O)[O-])cc3)SC2=S)c1C`?
A: GI50 (COLO 205 colon): 1.81 µM; TGI (COLO 205 colon): 5.08 µM; GI50 (HT29 colon): 1.13 µM; TGI (HT29 colon): > 100 µM; GI50 (786-0 renal): 2.07 µM; TGI (786-0 renal): 4.68 µM; GI50 (SK-MEL-28 melanoma): 2.37 µM; TGI (SK-MEL-28 melanoma): 7 µM; GI50 (SR leukemia): 0.404 µM; TGI (SR leukemia): > 100 µM; GI50 (RXF 393 renal): 1.63 µM; TGI (RXF 393 renal): 3.52 µM; GI50 (A549 NSCLC): 1.66 µM; TGI (A549 NSCLC): > 100 µM; GI50 (ACHN renal): 1.43 µM; TGI (ACHN renal): 2.75 µM

Q: What does the source list for `O=c1[nH]ccc(CNC23CC4CC(CC(C4)C2)C3)c1O`?
A: TGI (COLO 205 colon): > 100 µM; TGI (HT29 colon): > 100 µM; TGI (786-0 renal): > 100 µM; TGI (SNB-75 CNS): > 100 µM; TGI (SR leukemia): > 100 µM; TGI (NCI-H226 lung): > 100 µM; TGI (RXF 393 renal): > 100 µM; TGI (A549 NSCLC): > 100 µM; TGI (ACHN renal): > 100 µM
